Calls of active or inactive are those of the source. No rule for the calls is given here.
molecular target: Serine/threonine-protein kinase mTOR (Homo sapiens) (UniProt P42345); assay: mTOR FRB domain ligand binding – biophysical, NMR (AID 1648); conditions: NMR binding to FRB domain, chemical shift
Sequence (P42345 2015-2114): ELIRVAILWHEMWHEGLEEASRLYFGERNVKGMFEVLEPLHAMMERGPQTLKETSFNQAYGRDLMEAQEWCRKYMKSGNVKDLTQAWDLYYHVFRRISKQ

Row | SMILES | Kd
1 | Nc1ccc2nccnc2c1 | > 4 mM (inactive)
2 | COc1cc(OC)c2ccc(=O)oc2c1 | > 4 mM (inactive)
3 | O=C(/C(=N\O)n1cncn1)c1ccccc1Cl | > 4 mM (inactive)
4 | c1ccn(Cc2ccncc2)c1 | > 4 mM (inactive)
5 | CN1CCN(c2nc3c(c(=O)[nH]2)CCCC3)CC1 | > 4 mM (inactive)
6 | COc1cc2c(cc1OC)Cc1cc(OC)c(OC)cc1Cc1cc(OC)c(OC)cc1C2 | > 4 mM (inactive)
7 | OCc1ccc(-n2cncn2)cc1 | > 4 mM (inactive)
8 | COC(=O)Nc1nnc(-c2ccncc2)s1 | > 4 mM (inactive)
9 | Nc1c(N2CCCC2)cnn(-c2ccccc2)c1=O | > 4 mM (inactive)
10 | COC1CC(O[C@H]2CC[C@]3(C=O)C4CC[C@]5(C)C(C6=CC(=O)OC6)CC[C@]5(O)C4CC[C@]3(O)C2)OC(C)C1O (some centres undefined) | > 4 mM (inactive)
11 | CCN1CCc2c(sc(N)c2C#N)C1 | > 4 mM (inactive)
12 | CNCc1ccccc1 | > 4 mM (inactive)
13 | O=C(O)CCc1nc2ccccc2[nH]c1=O | > 4 mM (inactive)
14 | O=C1NC(=S)N/C1=C/c1ccc(O)c(Cl)c1 | > 4 mM (inactive)
15 | CC(C)CC(=O)Nc1c[nH]c(=O)[nH]c1=O | > 4 mM (inactive)
16 | Cn1c2c(c(=O)n(C)c1=O)CN(Cc1ccco1)CN2 | > 4 mM (inactive)
17 | CSc1n[nH]c(NCc2cccs2)n1 | > 4 mM (inactive)
18 | O=C1NC(=Nc2ccccc2Cl)SC1(CO)CO | > 4 mM (inactive)
19 | Cc1ccc(CCC(N)=O)o1 | > 4 mM (inactive)
20 | Cn1ncc(NC(=O)Nc2ccc(F)cc2F)c1C(N)=O | > 4 mM (inactive)

Row | SMILES | Kd
21 | Nc1cc(=O)[nH]c(SCC(=O)Nc2nccs2)n1 | > 4 mM (inactive)
22 | COC(=O)c1nc(-c2ccccc2)oc1N(C)C | > 4 mM (inactive)
23 | O=c1c(-c2cccs2)[n+]([O-])c2ccccc2n1O | > 4 mM (inactive)
24 | Cc1nc2ccc(NC(=O)N3CCSCC3)cc2s1 | > 4 mM (inactive)
25 | O=C(O)c1cc2ccccc2[nH]1 | > 4 mM (inactive)
26 | CCn1c(C)c(C(C)=O)c(N2CCOCC2)nc1=S | > 4 mM (inactive)
27 | Cn1c(=O)c2c(n(C)c1=O)=NC1(CCCCC1)N=2 | > 4 mM (inactive)
28 | CC(=O)Nc1ccc(CN2CCOCC2)cc1 | > 4 mM (inactive)
29 | CCn1c(-c2c[nH]c3ccccc23)n[nH]c1=S | > 4 mM (inactive)
30 | Cc1cc(O)cc(O)c1C(=O)O | > 4 mM (inactive)
31 | O=C(O)C(Cc1cnc[nH]1)N1C(=O)c2ccccc2C1=O (centres undefined) | > 4 mM (inactive)
32 | O=S1(=O)CCC(NC(=S)N2CCOCC2)C1 (centres undefined) | > 4 mM (inactive)
33 | O=C(O)CCN1CCc2ccccc2C1c1ccncc1 (centres undefined) | > 4 mM (inactive)
34 | CNC(=O)c1c(O)c2ccccc2[nH]c1=O | > 4 mM (inactive)
35 | Cc1c(CCO)c(=O)n2c([nH]c3ccccc32)c1C#N | > 4 mM (inactive)
36 | O=C(O)c1ccc2sccc2c1 | > 4 mM (inactive)
37 | Cc1ccc(-c2nc(-c3cccnc3)no2)cc1 | > 4 mM (inactive)
38 | Brc1cccc(-c2nnco2)c1 | > 4 mM (inactive)
39 | CC(=O)Nc1ccc(S(=O)(=O)NCC2CCCO2)cc1 (centres undefined) | > 4 mM (inactive)
40 | O=C(Nc1ccccc1F)c1ccncc1 | > 4 mM (inactive)

Row | SMILES | Kd
41 | Cc1cc(-c2ccc(Cl)cc2)n2nc(N)nc2n1 | > 4 mM (inactive)
42 | CC(NC(=O)c1cccnc1)c1ccc2c(c1)OCO2 (centres undefined) | > 4 mM (inactive)
43 | CNC(Cc1c[nH]c2ccccc12)C(=O)O (centres undefined) | > 4 mM (inactive)
44 | O=C(OCc1c(F)cccc1Cl)c1cnccn1 | > 4 mM (inactive)
45 | Cn1cnc2c(cnn2-c2ccccc2)c1=O | > 4 mM (inactive)
46 | Oc1cc(O)c2c(c1)O[C@H](c1ccc(O)c(O)c1)[C@H](O)C2 | > 4 mM (inactive)
47 | O=C(O)c1csc2ccccc12 | > 4 mM (inactive)
48 | O=C(Nn1cnnc1)c1cc2c(s1)CCCCC2 | > 4 mM (inactive)
49 | COc1c(C(=O)N2CCCC2)ccc2ccccc12 | > 4 mM (inactive)
50 | COc1ccc(NC(=O)c2ccc[n+]([O-])c2)cc1 | > 4 mM (inactive)
51 | O=C(O)c1ccnc2ccccc12 | > 4 mM (inactive)
52 | CSc1ccccc1NC(=O)c1ccc(C)o1 | > 4 mM (inactive)
53 | Cc1ccc(SCCN2C(=O)NC(C)(C)C2=O)cc1 | > 4 mM (inactive)
54 | NCCCCN | > 4 mM (inactive)
55 | COc1cc2ccc(=O)oc2c(OC)c1OC | > 4 mM (inactive)
56 | O=C(Nc1cnc2ccccn2c1=O)c1ccc(F)cc1 | > 4 mM (inactive)
57 | Cn1ncc(CO)c1-c1ccccc1 | > 4 mM (inactive)
58 | Oc1cccc(N2CCOCC2)c1 | > 4 mM (inactive)
59 | CCOCC(=O)NCc1n[nH]c(=O)c2ccccc12 | > 4 mM (inactive)
